EC50, CC50 and selectivity ratio data for eleven compounds are collected here from ChEMBL document CHEMBL5376009 (RSC Med Chem, 2024).

Series [1] deals with Influenza A virus. In words: Antiviral activity against influenza A virus A/PuertoRico/8/1934 (H1N1) infected in MDCK cells assessed as reduction in cytopathic effect incubated for 48 hrs by crystal violet staining based plaque assay. Type of series: functional, organism-based.
A short description of series [2]: Cytotoxicity against MDCK cells assessed as reduction in cell viability measured after 48 hrs by WST-1 assay. As to conditions: dog. Type of series: toxicity, cell-based, Canis lupus familiaris.
Series [3] concerns Influenza A virus. Briefly: Antiviral activity against influenza A virus A/WSN/33 (H1N1) infected in MDCK cells assessed as reduction in cytopathic effect incubated for 48 hrs by crystal violet staining based plaque assay. Format: functional, organism-based. Background: Damage to the host cells serves as the signal in cytopathic effect assays.
Series [4] has as its system Influenza A virus. Briefly: Antiviral activity against influenza A virus A/Sydney/5/1997 (H3N2) infected in MDCK cells assessed as reduction in cytopathic effect incubated for 48 hrs by crystal violet staining based plaque assay. Format: functional, organism-based.
For series [5], the system named is Influenza A virus. Briefly: Antiviral activity against influenza A virus A/duck/Hokkaido/Vac-3/2007 (H5N1) infected in MDCK cells assessed as reduction in cytopathic effect incubated for 48 hrs by crystal violet staining based plaque assay. Format: functional, organism-based.
A further series relates to rhinovirus B14. Briefly: Antiviral activity against Human rhinovirus 14 infected in human HeLa Ohio cells pretreated with cell for 2 hrs followed by viral infection for 1 hrs by plaque assay. As to conditions: Rhinovirus B. Format: functional, organism-based.
Series [6] deals with Influenza A virus. Briefly: Antiviral activity against Influenza A virus A/Panama/2007/99 (H3N2) infected in human A549 cells pretreated with cell for 2 hrs followed by viral infection for 1 hrs by plaque assay. Type of series: functional, organism-based.
Series [7] relates to Influenza A virus. Briefly: Antiviral activity against Influenza A virus A/WSN/33 (H1N1) infected in human A549 cells pretreated with cell for 2 hrs followed by viral infection for 1 hrs by plaque assay. Format: functional, organism-based.
In series [8] the test system is Influenza A virus. In words: Antiviral activity against Influenza A virus A/Vietnam/1203/04 (H5N1) HALo infected in human A549 cells pretreated with cell for 2 hrs followed by viral infection for 1 hrs by plaque assay. Format: functional, organism-based.
A further series relates to A549. Briefly: Cytotoxicity against human A549 cells incubated for 48 hrs by cell Titer-Glo assay. Format: functional.
The target in series [9] is Phosphatidylinositol 4-phosphate 3-kinase C2 domain-containing subunit beta (Homo sapiens, UniProt O00750). In words: Inhibition of PIK3C2beta (unknown origin) by KINOMEscan method.
Phosphatidylinositol 4-phosphate 3-kinase C2 domain-containing subunit beta, sequence (O00750 whole entry, the tested form may be a part): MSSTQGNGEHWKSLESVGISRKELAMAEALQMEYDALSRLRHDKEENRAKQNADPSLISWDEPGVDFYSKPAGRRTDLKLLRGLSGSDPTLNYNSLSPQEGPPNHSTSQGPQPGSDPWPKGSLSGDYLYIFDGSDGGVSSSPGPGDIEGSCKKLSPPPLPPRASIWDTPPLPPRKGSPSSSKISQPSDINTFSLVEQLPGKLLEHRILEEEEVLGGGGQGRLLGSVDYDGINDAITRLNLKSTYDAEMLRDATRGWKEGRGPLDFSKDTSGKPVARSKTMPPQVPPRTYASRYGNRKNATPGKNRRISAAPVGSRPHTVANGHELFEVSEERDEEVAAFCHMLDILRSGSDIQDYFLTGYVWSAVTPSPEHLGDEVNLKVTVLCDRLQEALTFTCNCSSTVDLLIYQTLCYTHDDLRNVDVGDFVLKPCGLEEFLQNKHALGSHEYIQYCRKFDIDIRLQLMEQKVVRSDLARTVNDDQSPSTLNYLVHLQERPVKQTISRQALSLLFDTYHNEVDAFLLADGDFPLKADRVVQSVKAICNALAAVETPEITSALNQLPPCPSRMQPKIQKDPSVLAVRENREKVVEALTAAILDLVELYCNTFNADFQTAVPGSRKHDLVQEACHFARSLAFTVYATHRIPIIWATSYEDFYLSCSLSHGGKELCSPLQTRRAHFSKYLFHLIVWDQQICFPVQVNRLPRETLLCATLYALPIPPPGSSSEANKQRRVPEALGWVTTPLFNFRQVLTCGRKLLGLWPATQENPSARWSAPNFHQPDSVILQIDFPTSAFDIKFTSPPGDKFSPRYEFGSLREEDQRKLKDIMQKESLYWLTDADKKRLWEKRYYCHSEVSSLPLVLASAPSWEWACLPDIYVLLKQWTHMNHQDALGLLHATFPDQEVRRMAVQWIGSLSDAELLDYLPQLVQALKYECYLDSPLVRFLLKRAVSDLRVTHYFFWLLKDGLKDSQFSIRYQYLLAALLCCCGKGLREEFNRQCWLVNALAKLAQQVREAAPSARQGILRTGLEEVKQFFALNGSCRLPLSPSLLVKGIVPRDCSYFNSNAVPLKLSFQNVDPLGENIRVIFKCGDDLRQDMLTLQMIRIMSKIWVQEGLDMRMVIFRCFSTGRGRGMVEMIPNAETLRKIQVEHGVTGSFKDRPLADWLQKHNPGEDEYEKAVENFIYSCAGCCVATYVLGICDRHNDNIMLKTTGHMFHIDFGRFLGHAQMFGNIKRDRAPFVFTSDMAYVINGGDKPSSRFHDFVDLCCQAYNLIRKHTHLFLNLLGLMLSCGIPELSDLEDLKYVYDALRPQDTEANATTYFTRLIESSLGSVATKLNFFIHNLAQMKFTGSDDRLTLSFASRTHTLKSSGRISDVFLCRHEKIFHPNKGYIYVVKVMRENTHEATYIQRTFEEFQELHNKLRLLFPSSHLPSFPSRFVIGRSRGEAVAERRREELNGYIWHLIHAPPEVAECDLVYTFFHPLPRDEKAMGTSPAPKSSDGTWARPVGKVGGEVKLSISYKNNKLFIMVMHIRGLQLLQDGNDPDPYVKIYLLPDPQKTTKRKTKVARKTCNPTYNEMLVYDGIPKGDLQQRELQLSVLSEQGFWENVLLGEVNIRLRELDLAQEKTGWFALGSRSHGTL
The subject of another series is Hepatitis C virus. In words: Antiviral activity against Hepatitis C virus infected in human Huh7.5 cells pretreated with cell for 2 hrs followed by viral infection for 1 hrs by plaque assay. Type of series: functional, organism-based, Hepacivirus hominis.
Series [10] concerns Influenza A virus. Briefly: Antiviral activity against influenza A virus A/WSN/1933 (H1N1) infected in HEK293T cells assessed as reduction in cytopathic effect incubated for 24 hrs. Type of series: functional, organism-based. As to conditions: HEK-293T.
Series [11] can be described thus: Cytotoxicity against MDCK cells assessed as reduction in cell viability measured after 48 hrs by CCK-8 assay. Type of series: toxicity, cell-based, Canis lupus familiaris. The settings on record: dog. (In general: Tetrazolium dyes change colour on reduction, which living cells bring about.)
Series [12] deals with Influenza B virus. In words: Antiviral activity against influenza B virus infected in HEK293T cells assessed as reduction in cytopathic effect incubated for 24 hrs. Format: functional, organism-based. As to conditions: HEK-293T.
For series [13], the system named is Influenza A virus. In words: Antiviral activity against Influenza A virus A/Vietnam/1203/2004 (H5N1) infected in MDCK cells pretreated with cell for 30 mins followed by viral infection and measured for 72 hrs by luminescence based assay. Type of series: functional, organism-based.
Series [14] is described as follows: Selectivity index, ratio of IC50 for cytotoxicity against MDCK cells to EC50 for antiviral activity Influenza A virus A/Vietnam/1203/2004 (H5N1) infected in MDCK cells. As to conditions: dog, read-out: Selectivity Index. Format: toxicity, cell-based.
The subject of series [15] is Influenza A virus. Briefly: Antiviral activity against Influenza A virus A/California/04/2009 (H1N1) infected in MDCK cells pretreated with cell for 30 mins followed by viral infection and measured for 72 hrs by luminescence based assay. Type of series: functional, organism-based.
Series [16] in a line: Selectivity index, ratio of IC50 for cytotoxicity against MDCK cells to EC50 for antiviral activity Influenza A virus A/California/04/2009 (H1N1) infected in MDCK cells. As to conditions: dog, read-out: Selectivity Index. Type of series: toxicity, cell-based.
Series [17] concerns Influenza A virus. In words: Antiviral activity against influenza A virus A/Anhui/1/2005 (H5N1) infected in MDCK cells assessed as reduction in cytopathic effect incubated for 72 hrs by CPE assay. Type of series: functional, organism-based.
Series [18] is described as follows: Cytotoxicity against MDCK cells assessed as reduction in cell viability measured after 72 hrs by CCK8 assay. The settings on record: dog. Format: toxicity, cell-based, Canis lupus familiaris.
For series [19], the system named is Influenza A virus. In words: Antiviral activity against Influenza A virus A/PR/8/34 (H1N1) infected in human A549 cells pretreated with cell for 3 hrs followed by viral infection and measured for 24 hrs. Type of series: functional, organism-based.
Series [20] is described as follows: Cytotoxicity against human A549 cells incubated for 48 hrs by neutral red uptake assay. Type of series: toxicity, cell-based.
In series [21] the test system is Influenza A virus. Briefly: Antiviral activity against influenza A virus A/WSN/1933 (H1N1) infected in MDCK cells assessed as reduction in cytopathic effect by fluorescence based analysis. Format: functional, organism-based.
The nature of series [22]: Cytotoxicity against MDCK cells assessed as reduction in cell viability measured after 72 hrs by fluorescence based assay. As to conditions: dog. Format: toxicity, Canis lupus familiaris.
Series [23] deals with Influenza A virus. Briefly: Antiviral activity against Influenza A virus A (H1N1). Type of series: functional, organism-based.
Series [24] is described as follows: Cytotoxicity against MDCK cells. Type of series: toxicity, cell-based, Canis lupus familiaris. The settings on record: dog.
Series [25] can be described thus: Cytotoxicity against MDCK cells assessed as reduction in cell viability measured after 72 hrs by MTT assay. The settings on record: dog. Type of series: toxicity, cell-based, Canis lupus familiaris.
Series [26] relates to Influenza A virus. In words: Antiviral activity against influenza A virus H5N1,A/Vietnam/1194/2004 infected in MDCK cells assessed as reduction in plaque formation incubated for 72 hrs by crystal violet staining based analysis. Format: functional, organism-based. As to conditions: H5N1,A/Vietnam/1194/2004, MDCK.
The subject of series [27] is Influenza A virus. In words: Antiviral activity against influenza A virus H1N1,A/WSN/1933 infected in MDCK cells assessed as reduction in plaque formation incubated for 72 hrs by crystal violet staining based analysis. Type of series: functional, organism-based. As to conditions: H1N1,A/WSN/1933, MDCK.
Series [28] has as its system Influenza A virus. Briefly: Antiviral activity against Influenza A virus A/Perth/16/2009 (H3N2) infected in MDCK cells measured after 24 hrs post infection. Type of series: functional, organism-based.
Series [29] can be described thus: Cytotoxicity against MDCK cell incubated for 72 hrs by EZ-Cytox cell viability assay. The settings on record: dog, MDCK cells. Format: toxicity, cell-based, Canis lupus familiaris.
For series [30], the system named is Influenza B virus. Briefly: Antiviral activity against influenza B virus B/Florida/04/2006 infected in MDCK cells measured after 24 hrs post infection. Format: functional, organism-based. As to conditions: B/Florida/04/2006, MDCK.
Series [31] relates to Influenza A virus. In words: Antiviral activity against Influenza A virus A/California/7/2009 (H1N1) infected in MDCK cells measured after 24 hrs post infection. Format: functional, organism-based.

With `OC(CN1CCCCC1)Cn1c2c(c3ccccc31)CCCC2` (stereo unspecified), the EC50 – broadly, the concentration at which the effect is half-maximal – in the series on Influenza A virus [1] was found to be 30700 nM; in the series on Influenza A virus [3], 35600 nM; with Influenza A virus [4], 44700 nM; in the series with Influenza A virus [5], 39800 nM. The CC50 (as a rule, the concentration that lowers cell viability or growth by half) at 48 h in series [2] was over 200000 nM.
Consider `O=C(Cc1cccs1)Nc1cccc(-c2ccc3nnc(-c4cccnc4)n3n2)c1`, for which the EC50 is 50 nM in the series on rhinovirus B14; 1220 nM in the series on Influenza A virus [6]; 2050 nM in the series on Influenza A virus [7]; 1770 nM in the series on Influenza A virus [8]; 430 nM in series [9]; 760 nM in the series with Hepatitis C virus. Besides, the CC50 in the series with A549 was over 50000 nM.
As to `C/C(=C\CC/C(C)=C/C[C@]1(O)C(=O)c2c(O)cc(C)c3c(O)c(C)c(O)c(c23)C1=O)CC/C=C(\CO)CC[C@@H](O)C(C)(C)O`, the EC50 with Influenza A virus [10] is 280 nM; with Influenza B virus [12], 1220 nM. In [11], the CC50 at 48 h was over 100000 nM.
`CC1CC2=C(NC(=O)NC2c2ccc(O)c(Br)c2)c2ccccc21` (stereo unspecified): the EC50 was found to be 46 nM in the series with Influenza A virus [13] and 98 nM in the series on Influenza A virus [15]. For the same compound, the selectivity ratio was over 1090 in [14] and over 510 in series [16].
With `CCCC(=O)c1c(O)c(CC2=C(O)C(C)(C)C(O)=C(C(C)=O)C2=O)c(O)c(Cc2c(O)c(CC3=C(O)C(C)(C)C(O)=C(C(C)=O)C3=O)c(O)c(C(=O)CCC)c2O)c1O`, the EC50 in the series on Influenza A virus [17] was found to be 16600 nM. In series [18], the CC50 at 72 h is over 400000 nM.
`O=C(CSc1nnnn1-c1ccccc1)NCc1ccccc1`: in the series with Influenza A virus [19], the EC50 came to 46400 nM. Further, the CC50 at 48 h in series [20] is over 150000 nM.
Consider `CCCCN1Cc2ccccc2Oc2ccccc2S1(=O)=O`, for which the EC50 in the series on Influenza A virus [21] amounted to 380 nM. The CC50 at 72 h in series [22] was over 100000 nM.
The corresponding values for `Cc1cccc(N2CCN(Cc3n[nH]c(=O)n3Cc3cccc(F)c3)CC2)c1C` are 170 nM and over 100000 nM.
Regarding `C=C1Cc2cc(C(F)(F)F)ccc2C(=O)NCC(C)/C(=N/OC)CCCCOC1=O` (stereo unspecified), the EC50 in the series on Influenza A virus [23] was found to be 570 nM. This compound had a CC50 in [24] of over 100000 nM.
As for `Cc1cc(C(=O)NC(C)C23CC4CC(CC(C4)C2)C3)c(C)o1` (stereo unspecified), the CC50 at 72 h in [25] is 73000 nM. The EC50 is 80 nM in the series with Influenza A virus [26] and 69 nM in the series on Influenza A virus [27].
For `COc1ccccc1-c1cc2c(Nc3ccccc3)nccc2n1C`, the values for the EC50 in the series on Influenza A virus [28], in the series with Influenza B virus [30] and in the series with Influenza A virus [31] were 8290 nM, 12900 nM and 1170 nM, respectively. The compound further displayed a CC50 at 72 h in [29] of 27200 nM.
